ChEMBL document CHEMBL5120811, “Nocathiacin, Thiazomycin, and Polar Analogs Are Highly Effective Agents against Toxigenic Clostridioides difficile” (J Nat Prod, 2022)
Converted amounts (≈) assume the structure as drawn.

Experiments:
Clostridioides difficile [1] = assay: Antibacterial activity against Clostridioides difficile assessed as inhibition of bacterial growth by CLSI based agar dilution susceptibility analysis; format: functional
Bacteroides fragilis = assay: Antibacterial activity against Bacteroides fragilis ATCC 25285 assessed as inhibition of bacterial growth by CLSI based agar dilution susceptibility analysis; format: functional
[2] = Selectivity ratio of MIC for Bacteroides fragilis ATCC 25285 to MIC for Clostridioides difficile; format: functional
Clostridioides difficile [3] = assay: Antibacterial activity against Clostridioides difficile SM8-6865 in CDAD golden hamster model assessed as protection from lethal infection at 6.25 mg/kg, po administered twice daily for 4 days; format: functional; details: time 4 day
Clostridioides difficile [4] = assay: Antibacterial activity against Clostridioides difficile SM8-6865 in CDAD golden hamster model assessed as log reduction in cecum bacterial content at 6.25 mg/kg, po administered twice daily for 4 days; format: functional; details: time 4 day
[5] = Drug concentration in golden hamster caecum at 6.25 mg/kg, po measured after 1 hr by LC-MS/MS analysis; format: ADME, organism-based, Mesocricetus auratus; details: read-out: Ct
[6] = Drug concentration in golden hamster caecum at 6.25 mg/kg, po measured after 24 hrs by LC-MS/MS analysis; format: ADME, organism-based, Mesocricetus auratus; details: read-out: Ct
Clostridioides difficile [7] = assay: Antibacterial activity against Clostridioides difficile SM8-6865 in CDAD golden hamster model assessed as protection from lethal infection at 0.39 o 1.56 mg/kg, po administered twice daily for 4 days; format: functional; details: time 4 day
Clostridioides difficile [8] = assay: Antibacterial activity against Clostridioides difficile SM8-6865 in CDAD golden hamster model assessed as protection from lethal infection at 1.56 mg/kg, po administered once daily for 4 days; format: functional; details: time 4 day
Clostridioides difficile [9] = assay: Antibacterial activity against Clostridioides difficile SM8-6865 in CDAD golden hamster model assessed as log reduction in cecum bacterial content at 1.56 mg/kg, po administered once daily for 4 days; format: functional; details: time 4 day
[10] = Toxicity in Clostridioides difficile SM8-6865 infected golden hamster model assessed as survival at 1.56 mg/kg, po administered once daily for 4 days; format: organism-based, Mesocricetus auratus; details: in vivo, 96 h, time 4 day
Clostridioides difficile [11] = assay: Antibacterial activity against Clostridioides difficile SM8-6865 in CDAD golden hamster model assessed as protection from lethal infection at 1.56 mg/kg, po administered twice daily for 4 days; format: functional; details: time 4 day
Clostridioides difficile [12] = assay: Antibacterial activity against Clostridioides difficile SM8-6865 in CDAD golden hamster model assessed as log reduction in cecum bacterial content at 1.56 mg/kg, po administered twice daily for 4 days; format: functional; details: time 4 day
Clostridioides difficile [13] = assay: Antibacterial activity against Clostridioides difficile assessed as inhibition of bacterial growth incubated for 18 to 24 hrs by broth microdilution method; format: functional; details: time 18-24 hrs

SMILES | MIC50 (Clostridioides difficile [1]) [µg/mL] | MIC (Bacteroides fragilis) [µg/mL] | Selectivity ratio [2] | also measured
Cc1ncc([N+](=O)[O-])n1CCO [METRONIDAZOLE] | ≤ 0.015 | > 16 |  | 
CO/C(C)=C1/NC(=O)[C@H]([C@@H](C)O)NC(=O)c2csc(n2)-c2cc(O)c(-c3nc(C(=O)NCCCN4CCOCC4)cs3)nc2-c2csc(n2)[C@@H]2COC(=O)c3c4c5c(cccc5n3O)COC(=O)[C@@H](O[C@H]3C[C@](C)(O)[C@H](N(C)C)[C@H](C)O3)[C@@H](OC4)[C@H](NC(=O)c3csc1n3)c1nc(cs1)C(=O)N2 | 0.03 (≈ 0.0201 µM) | 4 (≈ 2.67 µM) | 100 | Activity (Clostridioides difficile [3]): 100%; Activity (Clostridioides difficile [4]): >5 log10CFU/g; concentration at 1 h [5]: 6560 nM; concentration at 24 h [6]: 80 nM; Activity (Clostridioides difficile [7]): 16%
CN[C@H](CC(C)C)C(=O)N[C@H]1C(=O)N[C@@H](CC(N)=O)C(=O)N[C@H]2C(=O)N[C@H]3C(=O)N[C@H](C(=O)N[C@H](C(=O)O)c4cc(O)cc(O)c4-c4cc3ccc4O)[C@H](O)c3ccc(c(Cl)c3)Oc3cc2cc(c3O[C@@H]2O[C@H](CO)[C@@H](O)[C@H](O)[C@H]2O[C@H]2C[C@](C)(N)[C@H](O)[C@H](C)O2)Oc2ccc(cc2Cl)[C@H]1O [VANCOMYCIN] | 0.25 (≈ 0.173 µM) | 0.5 (≈ 0.345 µM) |  | Activity (Clostridioides difficile [8]): 100%; Activity (Clostridioides difficile [9]): >5 log10CFU/g; Activity [10]: Non-Toxic
CO/C(C)=C1/NC(=O)[C@H]([C@@H](C)O)NC(=O)c2csc(n2)-c2cc(OC)c(-c3nc(C(=O)NCCCN4CCOCC4)cs3)nc2-c2csc(n2)[C@@H]2COC(=O)c3c4c5c(cccc5n3O)COC(=O)[C@@H](O[C@H]3C[C@](C)(O)[C@H](N(C)C)[C@H](C)O3)[C@@H](OC4)[C@H](NC(=O)c3csc1n3)c1nc(cs1)C(=O)N2 | ≤ 0.015 | 4 (≈ 2.65 µM) | 100 | 
C=C(NC(=O)c1csc(-c2nc3c(cc2O)-c2nc(cs2)C(=O)N[C@@H]([C@@H](C)O)C(=O)N/C(=C(\C)OC)c2nc(cs2)C(=O)N[C@@H]2c4nc(cs4)C(=O)N[C@@H](COC(=O)c4c5c6c(cccc6n4O)COC(=O)[C@@H](O[C@H]4C[C@](C)(O)[C@H](N(C)C)[C@H](C)O4)[C@H]2OC5)c2nc-3cs2)n1)C(N)=O [MJ347-81F4 A] | 0.03 (≈ 0.0209 µM) | 4 (≈ 2.78 µM) | 100 | Activity (Clostridioides difficile [3]): 100%; Activity (Clostridioides difficile [4]): >5 log10CFU/g; Activity (Clostridioides difficile [11]): 66%; Activity (Clostridioides difficile [12]): 4 log10CFU/g; concentration at 1 h [5]: 5400 nM; concentration at 24 h [6]: 190 nM; MIC (Clostridioides difficile [13]): 0.06 µg/mL (≈ 0.0417 µM)
C=C(NC(=O)c1csc(-c2nc3c(cc2O)-c2nc(cs2)C(=O)N[C@@H]([C@@H](C)O)C(=O)N/C(=C(\C)OC)c2nc(cs2)C(=O)N[C@@H]2c4nc(cs4)C(=O)N[C@@H](COC(=O)c4c5c6c(cccc6n4O)COC(=O)[C@@H](O[C@H]4C[C@]6(C)OCN(C)[C@@H]6[C@H](C)O4)[C@H]2OC5)c2nc-3cs2)n1)C(N)=O [THIAZOMYCIN] | 0.06 (≈ 0.0418 µM) | 8 (≈ 5.57 µM) | 100 | 
CCc1c(Cl)c(O)c(Cl)c(O)c1C(=O)O[C@H]1[C@H](O)[C@H](OC)[C@H](OC/C2=C\C=C\C[C@H](O)/C(C)=C/[C@H](CC)[C@@H](O[C@@H]3OC(C)(C)[C@@H](OC(=O)C(C)C)[C@H](O)[C@@H]3O)/C(C)=C/C(C)=C/C[C@@H]([C@@H](C)O)OC2=O)O[C@@H]1C [FIDAXOMICIN] | 0.5 (≈ 0.473 µM) | > 16 |  | 
